Measured values published in patent publication US10807948B2, “Aromatic compounds and uses thereof” (PELOTON THERAPEUTICS, INC., priority 2015, dated 2020).
“Also recorded” adds a separate entry of the source.

Tests used:
[1] = biological target: T1, HIF-2α HIS TAG-PASB Domain (Homo sapiens, UniProt Q99814); assay: HIF-2α Scintillation Proximity Assay (SPA); type: binding; conditions: displacement of tritiated probe from HIF-2α PASB domain
T1 construct: 100 nM HIF-2α HIS TAG-PASB Domain
Protocol: The total assay volume was about 100 μL in the following configuration: 2 μL compound in 100% DMSO, 88 μL buffer with protein and probe and 10 μL of SPA beads. […] The percent inhibition was determined and IC50 values were calculated using the Dotmatics system based on the following equation: % inhibition=[(high control−sample)/(high control−low control)]×100.

786-O-Hif-Luc cells = assay: Luciferase Assay; type: cell-based; conditions: about 24 hours
Protocol: 786-O-Hif-Luc single clone cells were obtained by infecting 786-O cells (ATCC® CRL-1932™) with commercial lentivirus that delivers a luciferase gene driven by multiple HIF responsive elements (Cignal Lenti HIF Reporter (luc): CLS-007L, Qiagen) at Multiplicity of Infection (MOI) of 25 for 24 hours. […] A pool of infected cells were then selected against 2 μg/mL of puromycin (P8833, Sigma) for 10 days followed by limited dilution to select single clones. […] For the luciferase assay, about 7500 786-O-Hif-Luc cells in 90 μL growth medium were seeded into each well of a 96-well white opaque plate (08-771-26, Fisher scientific) a day before treatment with the layout presented in FIG. 5.
Each concentration was tested in triplicate. After about 24 hours, luciferase activity was determined using ONE-Glo Luciferase Assay Reagent (E6110, Promega) following the manufacturer's recommended procedure. EC50 were calculated using Dotmatics software.

786-O cells = assay: VEGF ELISA Assay; type: cell-based; conditions: Homo sapiens, 786-0, VEGF concentration in cell culture medium
Protocol: About 7500 786-0 cells in 180 μL of growth medium were seeded into each well of a 96-well, white, clear bottom plate (07-200-566, Fisher Scientific) on day one in the layout presented in FIG. 3.
Each concentration was plated in duplicate. About 20 hours later, medium was removed by suction and each well was supplied with 180 μL of growth medium. About 20 μL freshly-made 10× compound stocks were added to each well. […] The EC50 was calculated by GraphPad Prism using the dose-response-inhibition (four parameter) equation. The cell-seeded plate was then subjected to CellTiter-Glo luminescence cell viability assay (Promega) by adding 50 μL of Celltiter Glo reagent into each well and shaking the plate for 8 minutes at 550 rpm (Thermomixer R, Eppendorf) then the luminescence signal immediately read in a plate reader (3 second delay, 0.5 second/well integration time, Synergy 2 multi Detection Microplate reader).

[2] = test system: renal cell carcinoma 786-O xenograft; assay: In vivo PK/PD study: mRNA levels of genes in tumor by qRT-PCR; set-up: species or system SCID/Biege mice; conditions: 3 mg/kg oral gavage, six times at 12 hour intervals; 12 hours post last dose
Protocol: (§1) About 5×10^6 renal cell carcinoma 786-O tumor cells (ATCC® CRL-1932™, VHL and HIF-1α null cell line) in PBS and Matrigel (1:1 in volume) were injected subcutaneously at the right flanks of SCID/Biege mice at 6-7 weeks of age for xenograft development. When the xenografts reached about 400 mm^3 in size, the tumor bearing mice were randomly divided into 2 groups (n=3). Plasma was collected prior to treatment by retro-orbital bleeding. The animals were treated with either vehicle or Compound 95 at 3 mg/kg by oral gavage (six times at 12 hour intervals). All animals were sacrificed at 12 hours post last dose. Tumor, kidney, and plasma samples were collected from each animal. Total RNA was extracted from the tumors and kidneys. The mRNA levels of several genes were determined by qRT-PCR (FIG. 1).
Total RNA was extracted from the tumors, and the expressions of putative HIF-1α and HIF-2α regulated genes were determined by qRT-PCR.

[3] = test system: renal cell carcinoma 786-O xenograft; assay: In vivo PK/PD study: human VEGFA in plasma by ELISA; set-up: species or system SCID/Biege mice; conditions: 3 mg/kg oral gavage, six times at 12 hour intervals
Protocol: as §1
The level of human VEGFA was determined by ELISA assay.

[4] = test system: renal cell carcinoma 786-O xenograft; assay: In vivo efficacy study, 786-O xenograft; set-up: species or system SCID/Biege mouse; conditions: for Tumor size (mm^3) Mean ± SEM: after 28 days of dosing

T1 sequence (Q99814 239-348): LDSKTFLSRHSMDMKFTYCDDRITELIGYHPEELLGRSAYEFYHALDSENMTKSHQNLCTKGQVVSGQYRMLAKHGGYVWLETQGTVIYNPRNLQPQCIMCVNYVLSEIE

IC50 [1]	EC50 (786-O-Hif-Luc cells)	SMILES	further results
	< 50 nM	CS(=O)(=O)c1ccc(O[C@H]2C[C@H](F)C2)c2c1[C@H](O)C(F)(F)[C@@H]2F [Compound 261]	
	< 50 nM	CC1CC(Oc2ccc(S(=O)(=O)C(F)(F)F)c3c2CC(F)(F)C3O)CCO1 (stereo not drawn) [Compound 148]	
50 to 249 nM		CCOc1ccc(S(=O)(=O)C(F)(F)F)c2c1CC(F)(F)C2O (stereo not drawn) [Compound 113]	
	< 50 nM	COC[C@@H](C)Oc1ccc(S(=O)(=O)C(F)(F)F)c2c1CC(F)(F)[C@H]2O [Compound 184]	
< 50 nM		CO[C@H]1C[C@H](Oc2ccc(S(=O)(=O)C(F)(F)F)c3c2CC(F)(F)[C@H]3O)C1 [Compound 239]	
	< 50 nM	O=S(=O)(c1ccc(OCC2(F)COC2)c2c1[C@H](O)C(F)(F)C2)C(F)(F)F [Compound 94, (S)-2,2-difluoro-4-((3-fluorooxetan-3-yl)methoxy)-7-((trifluoromethyl)sulfonyl)-2,3-dihydro-1H-inden-1-ol]	
> 1000 nM		OC1c2c(OCC(F)F)ccc(C(F)(F)F)c2C(F)C1(F)F (stereo not drawn) [Compound 215]	
< 50 nM		CS(=O)(=O)c1ccc(OCC2CC(F)(F)C2)c2c1[C@H](O)C(F)(F)[C@@H]2F [Compound 287]	
	50 to 249 nM	CS(=O)(=O)c1ccc(OC2CCC2)c2c1[C@H](O)C(F)(F)[C@@H]2F [Compound 281]	

Continued, compound first:

SMILES	IC50 [1]	EC50 (786-O-Hif-Luc cells)	further results
FC(F)COc1ccc(C(F)(F)F)c2c1CC(F)(F)C2F (stereo not drawn) [Compound 214]	> 1000 nM		
N#Cc1cncc(-c2ccc(S(=O)(=O)C(F)(F)F)c3c2CC(F)(F)C3O)c1 (stereo not drawn) [Compound 91]	> 1000 nM	> 1000 nM	
N#CC1(COc2ccc(S(=O)(=O)C(F)(F)F)c3c2CC(F)(F)C3O)CC1 (stereo not drawn) [Compound 142]	< 50 nM		
O[C@H]1c2c(C(F)(F)F)ccc(OC3CC(F)(F)C3)c2CC1(F)F [Compound 109]		< 50 nM	EC50 (786-O cells): < 50 nM
OC1c2c(C(F)(F)F)ccc(OCC(F)F)c2CC1F (stereo not drawn) [Compound 221]	50 to 249 nM	50 to 249 nM	
CS(=O)(=O)c1ccc(OC2CC(F)(F)C2)c2c1[C@H](O)[C@H](F)[C@@H]2F (racemic) [Compound 98, (racemic)-4-(3,3-difluorocyclobutoxy)-2,3-difluoro-7-(methylsulfonyl)-2,3-dihydro-1H-inden-1-ol]	< 50 nM		
O=S(=O)(CF)c1ccc(OC2CC(F)(F)C2)c2c1[C@H](O)[C@H](F)[C@@H]2F (racemic) [Compound 99, (racemic)-4-(3,3-difluorocyclobutoxy)-2,3-difluoro-7-((fluoromethyl)sulfonyl)-2,3-dihydro-1H-inden-1-ol]	< 50 nM		
CS(=O)(=O)c1ccc(OC2CC(F)(F)C2)c2c1[C@H](O)C(F)(F)[C@@H]2F [Compound 95, (1S,3R)-4-(3,3-difluorocyclobutoxy)-2,2,3-trifluoro-7-(methylsulfonyl)-2,3-dihydro-1H-inden-1-ol]			CCND1 mRNA level in tumor [2]: significant reduction; also recorded: reduced; GLUT1 mRNA level in tumor [2]: significant reduction; also recorded: reduced; PAI-1 mRNA level in tumor [2]: significant reduction; also recorded: reduced; PGK1 mRNA level in tumor (HIF-1α specific target gene) [2]: no significant change; also recorded: no significant effect; VEGFA mRNA level in tumor [2]: significant reduction; also recorded: reduced; human VEGFA plasma level [3]: significant reduction; also recorded: reduced; Tumor size (mm^3) Mean ± SEM ([4]; 1 mg/kg QD): 525.72 mm^3; Tumor size (mm^3) Mean ± SEM ([4]; 3 mg/kg QD): 154.52 mm^3; Tumor size (mm^3) Mean ± SEM ([4]; 10 mg/kg QD): 89.45 mm^3; effect on tumor growth / tumor sizes ([4]; 1, 3 and 10 mg/kg QD for 28 days, single agent): statistically significant reduction of tumor sizes for all treatment groups; also recorded: tumor growth inhibition and regression
O=S(=O)(CF)c1ccc(OC2CC(F)(F)C2)c2c1[C@H](O)C(F)(F)[C@@H]2F [Compound 97, (1S,3R)-4-(3,3-difluorocyclobutoxy)-2,2,3-trifluoro-7-((fluoromethyl)sulfonyl)-2,3-dihydro-1H-inden-1-ol]			EC50 (786-O cells): < 50 nM
